Measured values reported in PubChem BioAssay (NCI).
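Tested at 5 concentrations; 48 h exposure; 96-well plates; endpoints linearly interpolated, else capped at highest concentration. Here, GI50 denotes the concentration required for 50% inhibition of growth. Definition used: TGI = concentration required for complete inhibition of growth.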

What was measured:
Test in all cases: inhibition of tumour cell growth, NCI panel, 48 h
TK-10 renal = tested on: TK-10 renal
NCI-H23 lung = tested on: NCI-H23 lung
MCF7 breast = tested on: MCF7 breast
SK-MEL-2 melanoma = tested on: SK-MEL-2 melanoma
HT29 colon = tested on: HT29 colon
MDA-MB-435 = tested on: MDA-MB-435
EKVX NSCLC = tested on: EKVX NSCLC
NCI-H460 lung = tested on: NCI-H460 lung
HOP-62 NSCLC = tested on: HOP-62 NSCLC
K-562 leukemia = tested on: K-562 leukemia

Compound	GI50 (TK-10 renal) [µM]	TGI (TK-10 renal) [µM]	GI50 (NCI-H23 lung) [µM]	TGI (NCI-H23 lung) [µM]	GI50 (MCF7 breast) [µM]	TGI (MCF7 breast) [µM]	GI50 (SK-MEL-2 melanoma) [µM]	TGI (SK-MEL-2 melanoma) [µM]	GI50 (HT29 colon) [µM]	TGI (HT29 colon) [µM]	GI50 (MDA-MB-435) [µM]	TGI (MDA-MB-435) [µM]	GI50 (EKVX NSCLC) [µM]	TGI (EKVX NSCLC) [µM]	GI50 (NCI-H460 lung) [µM]	TGI (NCI-H460 lung) [µM]	GI50 (HOP-62 NSCLC) [µM]	TGI (HOP-62 NSCLC) [µM]	GI50 (K-562 leukemia) [µM]	TGI (K-562 leukemia) [µM]
Cc1ccc(NC(=O)c2nc(S(C)=O)oc2-c2ccc(F)cc2)cc1Nc1nccc(-c2cccnc2)n1 (stereo not given)	2.82	6.25	1.83	4.49	1.87	3.86	1.78	4.03	1.82	3.53	2.13	4.77	2.62	6.65	2.09	4.06	2.95	8.04	0.454	3.3
CCN(CC)CC(O)C1CCC(c2ccccc2)CC1 (stereo not given)		31.2		> 100		84.6		37.4		47.7		40.2		> 100		85.5		> 100		> 100
CC(=O)c1ccc(NCN2C(=O)c3ccccc3C2=O)cc1		> 100		> 100		> 100		> 100		> 100		> 100		> 100		> 100		> 100		> 100
C=C(CN1CCN(c2cccc(F)c2)CC1)c1ccc(C(=O)Nc2ccccc2N)cc1	5.95	> 100	1.77	17.3	0.691	> 100	4.89	> 100	1.09	4.06	0.283	1.74	6.68	> 100	3.95	> 100	0.83	17.5	0.706	13.4
O=C(/C=C/c1cccnc1)c1ccccc1O	27.6	> 100	16.9	36	32.3	> 100	22.8	62.2	21.4	58.7	16.4	37	34.7	> 100	30.8	> 100	17.5	45.5	20.9	80
CN1CCCN(C(c2ccccc2)c2ccc(Br)cc2)CC1 (stereo not given)	10.4	22.7	10.3	22.1	2.63	10	3.66	11.3	2.92	13.1	1.87	3.83	4.94	19.6	6.55	19	6.52	19.3	5.04	> 100
Cn1c(=S)sc2nc3ccccc3n2c1=S		55.4		30.7		5.49		> 100		25.8		35.5		44.6		27.9		35.2		21.5
O=C(CN1CCN(c2ccc(Cl)cc2)CC1)N1CCN(c2nnc(-c3ccccc3)c(-c3ccccc3)n2)CC1	> 100	> 100	4	> 100	3.38	> 100	> 100	> 100	2.43	19.5	7.25	> 100	7.57	> 100	4.97	> 100	> 100	> 100	5.91	> 100
CC1=CC2C(C(C)C)CC1C1C(=O)OC(=O)C21 (stereo not given)		> 100		> 100		> 100		> 100		> 100		> 100		> 100		> 100		> 100		> 100
CC[C@]12CCCN3CC[C@]4(C(=C(C(=O)OC)C1)Nc1ccccc14)[C@@H]32	19.9	56.7	17.1	43.8	16	33.8	16.8	39.2	14.1	33.9	11.1	41	18.9	63.1	18.1	38.3	15.6	32.7	11.9	43.4
